Laboratory results reported in US11427567B2, “Imidazolyl pyrimidinylamine compounds as CDK2 inhibitors” (Incyte Corporation, priority 2019, dated 2022).

The compounds below were run against CDK2/Cyclin E1 (Homo sapiens (Human), UniProt P24941) (assay: CDK2/Cyclin E1 HTRF enzyme activity assay (Example A)). Conditions: 1 mM ATP.
Format: biochemical
Protocol: Assays were conducted in white 384-well polystyrene plates in a final reaction volume of 8 μL. […] HTRF signals were read after 1 hour at room temperature on a PHERAstar FS plate reader (BMG Labtech). Data was analyzed with IDBS XLFit and GraphPad Prism 5.0 software using a three or four parameter dose response curve to determine IC50 for each compound.

IC50, ≤ 50 nM:
Cc1cc(CN2CCC2)ccc1-n1cc(-c2nc(NC3CCN(S(C)(=O)=O)CC3)ncc2C(F)(F)F)nc1C [Example 285, 4-(1-(4-(Azetidin-1-ylmethyl)-2-methylphenyl)-2-methyl-1H-imidazol-4-yl)-N-(1-(methylsulfonyl)piperidin-4-yl)-5-(trifluoromethyl)pyrimidin-2-amine]
Cn1ncnc1-c1ccc(-n2cnc(-c3nc(NC4CCN(S(C)(=O)=O)CC4)ncc3C(F)(F)F)c2)c(Cl)c1 [Example 121, 4-(1-(2-Chloro-4-(1-methyl-1H-1,2,4-triazol-5-yl)phenyl)-1H-imidazol-4-yl)-N-(1-(methylsulfonyl)-piperidin-4-yl)-5-(trifluoromethyl)-pyrimidin-2-amine]
Cc1c(-n2cnc(-c3nc(NC4CCN(S(=O)(=O)c5cn(C)cn5)CC4)ncc3C(F)(F)F)c2)ccnc1C#N [Example 7, 3-Methyl-4-(4-(2-((1-((1-methyl-1H-imidazol-4-yl)sulfonyl)piperidin-4-yl)amino)-5-(trifluoromethyl)pyrimidin-4-yl)-1H-imidazol-1-yl)picolinonitrile]
Cc1nc(-c2nc(NC3CCN(S(C)(=O)=O)CC3)ncc2C#N)cn1-c1ccc(C#N)cc1F [Example 290, 4-(1-(4-Cyano-2-fluorophenyl)-2-methyl-1H-imidazol-4-yl)-2-((1-(methylsulfonyl)piperidin-4-yl)amino)pyrimidine-5-carbonitrile]
CS(=O)(=O)N1CCC(Nc2ncc(C(F)(F)F)c(-c3cn(C4CCOCC4)cn3)n2)CC1 [Example 24, N-(1-(Methylsulfonyl)piperidin-4-yl)-4-(1-(tetrahydro-2H-pyran-4-yl)-1H-imidazol-4-yl)-5-(trifluoromethyl)pyrimidin-2-amine]
CS(=O)(=O)N1CCC(Nc2ncc(C(F)(F)F)c(-c3cn(-c4ccc(OCCN5CCCC5)cc4C#N)cn3)n2)CC1 [Example 437, 2-(4-(2-((1-(Methylsulfonyl)piperidin-4-yl)amino)-5-(trifluoromethyl)pyrimidin-4-yl)-1H-imidazol-1-yl)-5-(2-(pyrrolidin-1-yl)ethoxy)benzonitrile]
Cc1nc(-c2nc(N[C@H]3CCN(S(C)(=O)=O)C[C@H]3F)ncc2C(F)(F)F)cn1-c1ccc(CN2CCN(C)CC2)cc1F [Example 387, N-((3R,4S)-3-Fluoro-1-(methylsulfonyl)piperidin-4-yl)-4-(1-(2-fluoro-4-((4-methylpiperazin-1-yl)methyl)phenyl)-2-methyl-1H-imidazol-4-yl)-5-(trifluoromethyl)pyrimidin-2-amine]
CN1CCN(Cc2ccc(-n3cnc(-c4nc(NC5CCN(S(C)(=O)=O)CC5)ncc4C(F)(F)F)c3)c(Cl)c2)CC1 [Example 209, 4-(1-(2-Chloro-4-((4-methylpiperazin-1-yl)methyl)phenyl)-1H-imidazol-4-yl)-N-(1-(methylsulfonyl)-piperidin-4-yl)-5-(trifluoromethyl)-pyrimidin-2-amine]
Cc1c(-n2cnc(-c3nc(NC4CCN(S(=O)(=O)c5cn(C)cn5)CC4)ncc3C(F)(F)F)c2)ccnc1N [Example 9, 4-(1-(2-Amino-3-methylpyridin-4-yl)-1H-imidazol-4-yl)-N-(1-((1-methyl-1H-imidazol-4-yl)sulfonyl)piperidin-4-yl)-5-(trifluoromethyl)pyrimidin-2-amine]
COCCNc1ccc(-n2cnc(-c3nc(NC4CCN(S(C)(=O)=O)CC4)ncc3C(F)(F)F)c2)c(Cl)c1 [Example 144, 4-(1-(2-Chloro-4-((2-methoxyethyl)-amino)phenyl)-1H-imidazol-4-yl)-N-(1-(methylsulfonyl)-piperidin-4-yl)-5-(trifluoromethyl)-pyrimidin-2-amine]
CCc1ccc(-n2cnc(-c3nc(NC4CCN(S(C)(=O)=O)CC4)ncc3C(F)(F)F)c2)c(C#N)n1 [Example 41, 6-Ethyl-3-(4-(2-((1-(methylsulfonyl)piperidin-4-yl)amino)-5-(trifluoromethyl)pyrimidin-4-yl)-1H-imidazol-1-yl)picolinonitrile]
CNC(C)c1ccc(-n2cnc(-c3nc(NC4CCN(S(C)(=O)=O)CC4)ncc3C(F)(F)F)c2)c(Cl)c1 (single isomer, unassigned) [Example 275, 4-(1-(2-Chloro-4-(1-(methylamino)ethyl)phenyl)-1H-imidazol-4-yl)-N-(1-(methylsulfonyl)piperidin-4-yl)-5-(trifluoromethyl)pyrimidin-2-amine]
Cn1cnc(S(=O)(=O)N2CCC(Nc3ncc(C(F)(F)F)c(-c4ncn(C)c4Cl)n3)CC2)c1 [Example 20, 4-(5-Chloro-1-methyl-1H-imidazol-4-yl)-N-(1-((1-methyl-1H-imidazol-4-yl)sulfonyl)piperidin-4-yl)-5-(trifluoromethyl)pyrimidin-2-amine]
CN(C)CCOc1ccc(-n2cnc(-c3nc(N[C@H]4CCN(S(C)(=O)=O)C[C@H]4F)ncc3C(F)(F)F)c2)c(C#N)n1 [Example 53, 6-(2-(Dimethylamino)ethoxy)-3-(4-(2-(((3R,4S)-3-fluoro-1-(methylsulfonyl)piperidin-4-yl)amino)-5-(trifluoromethyl)pyrimidin-4-yl)-1H-imidazol-1-yl)picolinonitrile]
Cc1nc(-c2nc(N[C@H]3CCN(S(C)(=O)=O)C[C@H]3F)ncc2C(F)(F)F)cn1-c1ccc(CNC(C)C)cc1F [Example 388, N-((3R,4S)-3-Fluoro-1-(methylsulfonyl)piperidin-4-yl)-4-(1-(2-fluoro-4-((isoporopylamino)methyl)phenyl)-2-methyl-1H-imidazol-4-yl)-5-(trifluoromethyl)pyrimidin-2-amine]
Cc1nc(CN2CC(C)(C)C2)ccc1-n1cnc(-c2nc(NC3CCN(S(C)(=O)=O)CC3)ncc2C(F)(F)F)c1 [Example 265, 4-(1-(6-((3,3-Dimethylazetidin-1-yl)methyl)-2-methylpyridin-3-yl)-1H-imidazol-4-yl)-N-(1-(methylsulfonyl)piperidin-4-yl)-5-(trifluoromethyl)pyrimidin-2-amine]
Cn1cnc(S(=O)(=O)N2CCC(Nc3ncc(C(F)(F)F)c(-c4cn(-c5ccc(C#N)cc5Cl)cn4)n3)CC2)c1 [Example 4, 3-Chloro-4-(4-(2-((1-((1-methyl-1H-imidazol-4-yl)sulfonyl)piperidin-4-yl)amino)-5-(trifluoromethyl)pyrimidin-4-yl)-1H-imidazol-1-yl)benzonitrile]
Cc1nc(-c2nc(NC3CCN(S(C)(=O)=O)CC3)ncc2C(F)(F)F)cn1-c1ccc(C2CNC2)cc1F [Example 160, 4-(1-(4-(Azetidin-3-yl)-2-fluorophenyl)-2-methyl-1H-imidazol-4-yl)-N-(1-(methylsulfonyl)piperidin-4-yl)-5-(trifluoromethyl)pyrimidin-2-amine]
CS(=O)(=O)N1CCC(Nc2ncc(C(F)(F)F)c(-c3cn(-c4c(F)cccc4C#N)cn3)n2)CC1 [Example 294, 3-Fluoro-2-(4-(2-((1-(methylsulfonyl)piperidin-4-yl)amino)-5-(trifluoromethyl)pyrimidin-4-yl)-1H-imidazol-1-yl)benzonitrile]
CC1(O)CN(CCc2cccc(-n3cnc(-c4nc(NC5CCN(S(C)(=O)=O)CC5)ncc4C(F)(F)F)c3)c2Cl)C1 [Example 372, 1-(2-Chloro-3-(4-(2-((1-(methylsulfonyl)piperidin-4-yl)amino)-5-(trifluoromethyl)pyrimi-din-4-yl)-1H-imidazol-1-yl)phenethyl)-3-methylazetidin-3-ol]
CS(=O)(=O)N1CCC(Nc2ncc(C(F)(F)F)c(-c3cn(-c4cccc(CN5CCC5)c4Cl)cn3)n2)CC1 [Example 366, 4-(1-(3-(Azetidin-1-ylmethyl)-2-chlorophenyl)-1H-imidazol-4-yl)-N-(1-(methylsulfonyl)piperidin-4-yl)-5-(trifluoromethyl)pyrimi-din-2-amine]
Cc1nc(C#N)ccc1-n1cnc(-c2nc(N[C@H]3CCN(S(C)(=O)=O)C[C@H]3F)ncc2C(F)(F)F)c1 [Example 49, 5-(4-(2-(((3R,4S)-3-Fluoro-1-(methylsulfonyl)piperidin-4-yl)amino)-5-(trifluoromethyl)pyrimidin-4-yl)-1H-imidazol-1-yl)-6-methylpicolinonitrile]
[2H]C([2H])([2H])N(Cc1ccc(-n2cc(-c3nc(NC4CCN(S(C)(=O)=O)CC4)ncc3C(F)(F)F)nc2C)c(F)c1)C([2H])([2H])[2H] [Example 280, 4-(1-(4-((Bis(methyl-d)amino)methyl)-2-fluorophenyl)-2-methyl-1H-imidazol-4-yl)-N-(1-(methylsulfonyl)piperidin-4-yl)-5-(trifluoromethyl)pyrimidin-2-amine]
CCN1CCN(c2nccc(-n3cnc(-c4nc(NC5CCN(S(C)(=O)=O)CC5)ncc4C(F)(F)F)c3)c2C#N)CC1 [Example 315, 2-(4-Ethylpiperazin-1-yl)-4-(4-(2-((1-(methylsulfonyl)piperidin-4-yl)amino)-5-(trifluoromethyl)pyrimidin-4-yl)-1H-imidazol-1-yl)nicotinonitrile]
CN1CC(c2ccc(-n3cnc(-c4nc(NC5CCN(S(C)(=O)=O)CC5)ncc4C(F)(F)F)c3)c(C#N)c2)C1 [Example 428, 5-(1-Methylazetidin-3-yl)-2-(4-(2-((1-(methylsulfonyl)piperidin-4-yl)amino)-5-(trifluoromethyl)pyrimidin-4-yl)-1H-imidazol-1-yl)benzonitrile]
CS(=O)(=O)N1CCC(Nc2ncc(C(F)(F)F)c(-c3cn(-c4ccc(CN5CC6(CC(O)C6)C5)cc4Cl)cn3)n2)CC1 [Example 202, 2-(3-Chloro-4-(4-(2-((1-(methylsulfonyl)-piperidin-4-yl)amino)-5-(trifluoromethyl)-pyrimidin-4-yl)-1H-imidazol-1-yl)benzyl)-2-azaspiro[3.3]heptan-6-ol]
